Assay results from ChEMBL document CHEMBL1135403, “Nanomolar inhibitors of Staphylococcus aureus methionyl tRNA synthetase with potent antibacterial activity against gram-positive pathogens” (J Med Chem, 2002).
Converted amounts (≈) assume the structure as drawn.

What was measured:
Staphylococcus aureus [1] = assay: In vitro minimum inhibitory activity against Staphylococcus aureus WCUH29 strain; type: functional
Staphylococcus aureus [2] = assay: In vitro minimum inhibitory activity against Staphylococcus aureus Oxford strain; type: functional
Staphylococcus aureus [3] = assay: In vitro inhibitory concentration against Staphylococcus aureus Methionyl tRNA synthetase; type: functional
Staphylococcus aureus [4] = assay: MIC required to inhibit 90% of the growth of Staphylococcus aureus (n = 31); type: functional
Enterococcus faecium = assay: MIC required to inhibit 90% of the growth of Enterococcus faecium (n = 10); type: functional
Enterococcus faecalis [5] = assay: In vitro minimum inhibitory activity against Enterococcus faecalis 7 strain; type: functional
[6] = tested on: Staphylococcus epidermidis; assay: MIC required to inhibit 90% of the growth of Staphylococcus epidermidis (n = 10); type: functional
Enterococcus faecalis [7] = assay: In vitro minimum inhibitory activity against Enterococcus faecalis 1 strain; type: functional
Enterococcus faecalis [8] = assay: MIC required to inhibit 90% of the growth of Enterococcus faecalis (n = 10); type: functional
Nucleic Acid = assay: In vitro inhibitory concentration against tRNA synthetases, in a pyrophosphate exchange assay; type: functional, Staphylococcus aureus
Staphylococcus aureus [9] = assay: In vivo efficacy against Staphylococcus aureus WCUH29 in a Groin Abscess infection in rats at a dose of 21 mg/kg; log10 cfu; type: functional
Staphylococcus aureus [10] = assay: In vitro antibacterial activity and competitive kinetics with respect to methionine; type: functional, organism-based
Staphylococcus aureus [11] = assay: In vivo efficacy against Staphylococcus aureus WCUH29 in a Groin Abscess infection in rats at a dose of 50 mg/kg; log10 cfu; type: functional

MIC90 (Staphylococcus aureus [4])	MIC90 (Enterococcus faecium)	MIC90 [6]	MIC90 (Enterococcus faecalis [8])	IC50 (Nucleic Acid)	SMILES	MIC (Staphylococcus aureus [1])	MIC (Staphylococcus aureus [2])	IC50 (Staphylococcus aureus [3])	MIC (Enterococcus faecalis [5])	MIC (Enterococcus faecalis [7])	Bacterial counts (Staphylococcus aureus [9])	Ki (Staphylococcus aureus [10])	Bacterial counts (Staphylococcus aureus [11])
0.5 µg/mL (≈ 0.988 µM)	< 0.016 µg/mL	0.5 µg/mL (≈ 0.988 µM)	0.03 µg/mL (≈ 0.0593 µM)		Oc1cc(NCCCNC2CCNc3c(Br)cc(Br)cc32)nc2ccccc12 (configuration not stated)	0.125 µg/mL (≈ 0.247 µM)	< 0.06 µg/mL	8 nM	< 0.06 µg/mL	< 0.06 µg/mL			
1 µg/mL (≈ 1.99 µM)	0.06 µg/mL (≈ 0.119 µM)	1 µg/mL (≈ 1.99 µM)	0.25 µg/mL (≈ 0.498 µM)	1.4 nM	CCc1cc(I)c2c(c1)C(NCCCNc1cc(=O)c3ccccc3[nH]1)CCN2 (configuration not stated)	0.25 µg/mL (≈ 0.498 µM)	0.25 µg/mL (≈ 0.498 µM)		0.125 µg/mL (≈ 0.249 µM)	< 0.06 µg/mL	3.9		
					O=c1cc(NCCCNCc2ccc(Cl)c(Cl)c2)[nH]c2ccccc12	8 µg/mL (≈ 21.3 µM)	4 µg/mL (≈ 10.6 µM)	16 nM	2 µg/mL (≈ 5.32 µM)	2 µg/mL (≈ 5.32 µM)		5 nM	
					CC[C@H]1OC(=O)[C@H](C)[C@@H](O[C@H]2C[C@@](C)(OC)[C@@H](O)[C@H](C)O2)[C@H](C)[C@@H](O[C@@H]2O[C@H](C)C[C@H](N(C)C)[C@H]2O)[C@](C)(O)C[C@@H](C)C(=O)[C@H](C)[C@@H](O)[C@]1(C)O [ERYTHROMYCIN]								3.7
					C/C(=C\C(=O)OCCCCCCCCC(=O)O)C[C@@H]1OC[C@H](C[C@@H]2O[C@H]2[C@@H](C)[C@H](C)O)[C@@H](O)[C@H]1O [MUPIROCIN]	0.25 µg/mL (≈ 0.499 µM)			64 µg/mL (≈ 128 µM)	64 µg/mL (≈ 128 µM)			

SMILES	MIC90 (Staphylococcus aureus [4])	MIC90 (Enterococcus faecium)	MIC90 [6]	MIC90 (Enterococcus faecalis [8])	IC50 (Nucleic Acid)	MIC (Staphylococcus aureus [1])	MIC (Staphylococcus aureus [2])	IC50 (Staphylococcus aureus [3])	MIC (Enterococcus faecalis [5])	MIC (Enterococcus faecalis [7])	Bacterial counts (Staphylococcus aureus [9])	Ki (Staphylococcus aureus [10])	Bacterial counts (Staphylococcus aureus [11])
CC1(C)S[C@@H]2[C@H](NC(=O)[C@H](N)c3ccc(O)cc3)C(=O)N2[C@H]1C(=O)O [AMOXICILLIN]	> 16 µg/mL	> 16 µg/mL	8 µg/mL (≈ 21.9 µM)	> 16 µg/mL		> 64 µg/mL	0.125 µg/mL (≈ 0.342 µM)		0.5 µg/mL (≈ 1.37 µM)	0.5 µg/mL (≈ 1.37 µM)			
